The source of these data is patent US5264457A, “Phenyl amidines sulfonamides useful as platelet aggregation inhibitors” (G. D. Searle & Co., priority 1992, dated 1993).

This assay has as its system platelet aggregation in dog PRP. The experiment in a line: In-vitro platelet aggregation in PRP (ADP-induced, dog platelet-rich plasma). The assay is classed as cell-based. Particulars: Canis lupus familiaris; for inhibition at 10 µM: test concentration of 10 μM; for IC50: concentration inhibiting aggregation by 50%. Here is the method:
Compounds of the invention were evaluated by an […] assay to determine compound activity as an inhibitors of platelet aggregation.
Healthy male or female dogs were fasted for 8 hours prior to drawing blood; then 30 mL whole blood was collected using a butterfly needle and 30 cc plastic syringe with 3 ml of 0.129M buffered sodium citrate (3.8%). The syringe was rotated carefully as blood was drawn to mix the citrate. Platelet-rich plasma (PRP) was prepared by centrifugation at 975×g for 3.17 minutes at room temperature, allowing the centrifuge to coast to a stop without braking. The PRP was removed from the blood with a plastic pipette and placed in a plastic capped, 50 ml Corning conical sterile centrifuge tube which was held at room temperature. Platelet poor plasma (PPP) was prepared by centrifuging the remaining blood at 2000×g for 15 minutes at room temperature allowing the centrifuge to coast to a stop without braking. The PRP was adjusted with PPP to a count of 2-3×10^8 s platelets per ml. 400 μL of the PRP preparation and 50 μL of the compound to be tested or saline were preincubated for 1 minute at 37° C. in a BioData aggregometer (BioData, Horsham, Pa.). 50 μL of adenosine 5'diphosphate (ADP) (50 μm final concentration) was added to the cuvettes and the aggregation was monitored for 1 minute. All compounds are tested in duplicate. Inhibition of aggregation for each sample was determined using the formula: % inhibition=(Tinh -Tbas)/(Tagg -Tbas ×100 where Tbas is % of light transmission in PRP (baseline), Tagg is % of light transmission in the aggregated PRP sample (saline control) and Tinh is % of light transmission in the sample containing the inhibitor.

Usually inhibition stands for the drop in the measured response relative to a control, in per cent. Low readings indicate a weak effect, high ones a strong effect. For the compound `CCOC(=O)CC(CNS(=O)(=O)c1ccc(C)cc1)NC(=O)CCCCc1ccc(C(=N)N)cc1` (racemic) [Example 3, (±) Ethyl-3-[[5-[5-(Aminoiminomethyl)phenyl]-1-oxopentyl]amino]-4-[[(4-methylphenyl)sulfonyl]amino]butanoate], 10 µM produced 20% inhibition.

For orientation: IC50 means the concentration at which inhibition is half-maximal. A high value points to weaker potency in that assay. Consider `Cc1ccc(S(=O)(=O)NCC(CC(=O)O)NC(=O)CCCCc2ccc(C(=N)N)cc2)cc1` (racemic) [Example 1, (±)-3-[[5-[4-(Aminoiminomethyl)phenyl]-1-oxopentyl]amino]-4-[[(4-methylphenyl)sulfonyl]amino]butanoic acid], for which the half-inhibitory concentration (IC50) is 1 µM and the inhibition at 10 µM was found to be 100%.

Compound `COc1ccc(S(=O)(=O)NCC(CC(=O)O)NC(=O)CCCCc2ccc(C(=N)N)cc2)cc1` (racemic) [Example 2, (±)-3-[[5-[4-(Aminoiminomethyl)phenyl]-1-oxopentyl]amino]-4-[[(4-methoxyphenyl)sulfonyl]amino]butanoic Acid] came in with a half-maximal inhibitory concentration (IC50) of 8 µM and an inhibition at 10 µM of 100%.
